{"source": "patent US9144239B2", "about": "“Macrocyclic picolinamides as fungicides” (DOW AGROSCIENCES LLC, priority 2012, dated 2015)", "format_in_all_cases": "in vivo", "key": {"[1]": {"test_system": "Mycosphaerella graminicola; anamorph: Septoria tritici", "assay": "Fungicidal activity: leaf blotch of wheat (SEPTTR), wheat seedlings", "details": "Zymoseptoria tritici, 100 ppm, wheat", "outline": "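Compounds in acetone were diluted with nine volumes of water containing 110 ppm Triton X-100 and sprayed to run-off on Yuma wheat seedlings at first-leaf stage. Septoria tritici spores were inoculated before or after treatment, followed by dew chambers at 100% RH and 20 °C, then greenhouse at 20 °C. Severity (0–100%) was scored once untreated plants were fully diseased; control was calculated relative to untreated plants.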"}, "[2]": {"test_system": "Puccinia triticina; synonym: Puccinia recondita f. sp. tritici", "assay": "Fungicidal activity: wheat brown rust (PUCCRT), wheat seedlings", "details": "100 ppm, wheat", "outline": "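Wheat (Yuma) seedlings at first-leaf stage, inoculated with Puccinia triticina spores before or after treatment, held overnight in dark dew room at 22° C, 100% RH, then greenhouse at 24° C. Acetone solutions diluted with nine volumes water containing 110 ppm Triton X-100, sprayed to run-off. Percent disease control derived from severity (0–100%) relative to untreated plants.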"}, "[3]": {"test_system": "Leptosphaeria nodorum", "assay": "Fungicidal activity: wheat glume blotch (LEPTNO)", "details": "Parastagonospora nodorum, 24 h, 1 Day Protectant, read-out: Disease Control LEPTNO 1 DP", "procedure": "Technical grades of materials were dissolved in acetone, which were then mixed with nine volumes of water containing 110 ppm Triton X-100. The fungicide solutions were applied onto wheat seedlings using an automated booth sprayer to run-off. All sprayed plants were allowed to air dry prior to further handling. Wheat plants (variety Yuma) were grown from seed in a greenhouse in 50% mineral soil/50% soil-less Metro mix until the first leaf was fully emerged, with 7-10 seedlings per pot. These plants were inoculated with an aqueous spore suspension of Septoria tritici either prior to or after fungicide treatments. After inoculation the plants were kept in 100% relative humidity (one day in a dark dew chamber followed by two to three days in a lighted dew chamber at 20° C.) to permit spores to germinate and infect the leaf. The plants were then transferred to a greenhouse set at 20° C. for disease to develop. When disease symptoms were fully expressed on the 1st leaves of untreated plants, infection levels were assessed on a scale of 0 to 100 percent disease severity. Percent disease control was calculated using the ratio of disease severity on treated plants relative to untreated plants. Evaluation of Fungicidal Activity: Wheat Glume Blotch (Leptosphaeria nodorum; Bayer Code […]) Wheat plants (variety Yuma) were grown from seed in a greenhouse in 50% mineral soil/50% soil-less Metro mix until the first leaf was fully emerged, with 7-10 seedlings per pot. These plants were inoculated with an aqueous spore suspension of Leptosphaeria nodorum 24 hr after fungicide treatments. After inoculation the plants were kept in 100% relative humidity (one day in a dark dew chamber followed by two days in a lighted dew chamber at 20° C.) to permit spores to germinate and infect the leaf. The plants were then transferred to a greenhouse set at 20° C. for disease to develop. Fungicide formulation, application and disease assessment followed the procedures as described in the Example A."}, "[4]": {"test_system": "Cercospora beticola", "assay": "Fungicidal activity: leaf spot of sugar beets (CERCBE)", "details": "24 h, 1 Day Protectant, sugar beet, read-out: Disease Control CERCBE 1DP", "procedure": "Technical grades of materials were dissolved in acetone, which were then mixed with nine volumes of water containing 110 ppm Triton X-100. The fungicide solutions were applied onto wheat seedlings using an automated booth sprayer to run-off. All sprayed plants were allowed to air dry prior to further handling. Wheat plants (variety Yuma) were grown from seed in a greenhouse in 50% mineral soil/50% soil-less Metro mix until the first leaf was fully emerged, with 7-10 seedlings per pot. These plants were inoculated with an aqueous spore suspension of Septoria tritici either prior to or after fungicide treatments. After inoculation the plants were kept in 100% relative humidity (one day in a dark dew chamber followed by two to three days in a lighted dew chamber at 20° C.) to permit spores to germinate and infect the leaf. The plants were then transferred to a greenhouse set at 20° C. for disease to develop. When disease symptoms were fully expressed on the 1st leaves of untreated plants, infection levels were assessed on a scale of 0 to 100 percent disease severity. Percent disease control was calculated using the ratio of disease severity on treated plants relative to untreated plants. Evaluation of Fungicidal Activity: Leaf Spot of Sugar Beets (Cercospora beticola; Bayer Code CERCBE) Sugar beet plants (variety HH88) were grown in soil-less Metro mix and trimmed regularly to maintain a uniform plant size prior to test. Plants were inoculated with a spore suspension 24 hr after fungicide treatments. Inoculated plants were kept in a dew chamber at 22° C. for 48 hr then incubated in a greenhouse set at 24° C. under a clear plastic hood with bottom ventilation until disease symptoms were fully expressed. Fungicide formulation, application and disease assessment on the sprayed leaves followed the procedures as described in the Example A."}, "[5]": {"test_system": "Blumeria graminis f.sp. hordei; synonym: Erysiphe graminis f.sp. hordei", "assay": "Fungicidal activity: barley powdery mildew (ERYSGH)", "details": "24 h, 1 Day Protectant, read-out: Disease Control ERYSGH 1DP", "procedure": "Technical grades of materials were dissolved in acetone, which were then mixed with nine volumes of water containing 110 ppm Triton X-100. The fungicide solutions were applied onto wheat seedlings using an automated booth sprayer to run-off. All sprayed plants were allowed to air dry prior to further handling. Wheat plants (variety Yuma) were grown from seed in a greenhouse in 50% mineral soil/50% soil-less Metro mix until the first leaf was fully emerged, with 7-10 seedlings per pot. These plants were inoculated with an aqueous spore suspension of Septoria tritici either prior to or after fungicide treatments. After inoculation the plants were kept in 100% relative humidity (one day in a dark dew chamber followed by two to three days in a lighted dew chamber at 20° C.) to permit spores to germinate and infect the leaf. The plants were then transferred to a greenhouse set at 20° C. for disease to develop. When disease symptoms were fully expressed on the 1st leaves of untreated plants, infection levels were assessed on a scale of 0 to 100 percent disease severity. Percent disease control was calculated using the ratio of disease severity on treated plants relative to untreated plants. Evaluation of Fungicidal Activity: Barley Powdery Mildew (Blumeria graminis f.sp. hordei; Synonym: Erysiphe graminis f.sp. hordei; Bayer Code […]) Barley seedlings (variety Harrington) were propagated in soil-less Metro mix, with each pot having 8 to 12 plants, and used in the test when first leaf was fully emerged. Test plants were inoculated by dusting with infected stock plants 24 hr after fungicide treatments. After inoculation the plants were kept in a greenhouse set at 20° C. for disease to develop. Fungicide formulation, application and disease assessment on the sprayed leaves followed the procedures as described in the Example A."}}, "note": "Where two headings read alike, the source gives them in different places.", "data": [{"compound": "COc1ccnc(C(=O)N[C@H]2COC[C@H](Oc3ccc(F)cc3)[C@@H](OCC(C)C)[C@H](C)OC2=O)c1OCOC(C)=O", "note": "[Compound 228]", "values": [{"measurement": "pest or weed control at 100 ppm", "setting": "[1]; 24 h, 1 Day Protectant, read-out: Disease Control SEPTTR 1DP", "value": "80 to 100", "unit": "%"}, {"measurement": "pest or weed control at 100 ppm", "setting": "[1]; 72 h, 3 Day Curative, read-out: Disease Control SEPTTR 3DC", "value": "80 to 100", "unit": "%"}, {"measurement": "pest or weed control at 100 ppm", "setting": "[2]; 24 h, 1 Day Protectant, read-out: Disease Control PUCCRT 1DP", "value": "80 to 100", "unit": "%"}, {"measurement": "pest or weed control at 100 ppm", "setting": "[2]; 72 h, 3 Day Curative, read-out: Disease Control PUCCRT 3DC", "value": "80 to 100", "unit": "%"}, {"measurement": "pest or weed control at 100 ppm", "setting": "[3]", "value": "80 to 100", "unit": "%"}, {"measurement": "pest or weed control at 100 ppm", "setting": "[4]", "value": "0 to 80", "unit": "%"}, {"measurement": "pest or weed control at 100 ppm", "setting": "[5]", "value": "0 to 80", "unit": "%"}]}]}
